In paper PMC6691805 (Journal of Enzyme Inhibition and Medicinal Chemistry, 2019):

Biological target: T1, 17β-HSD1 (Homo sapiens, UniProt P14061)
T1 sequence (P14061 1-328): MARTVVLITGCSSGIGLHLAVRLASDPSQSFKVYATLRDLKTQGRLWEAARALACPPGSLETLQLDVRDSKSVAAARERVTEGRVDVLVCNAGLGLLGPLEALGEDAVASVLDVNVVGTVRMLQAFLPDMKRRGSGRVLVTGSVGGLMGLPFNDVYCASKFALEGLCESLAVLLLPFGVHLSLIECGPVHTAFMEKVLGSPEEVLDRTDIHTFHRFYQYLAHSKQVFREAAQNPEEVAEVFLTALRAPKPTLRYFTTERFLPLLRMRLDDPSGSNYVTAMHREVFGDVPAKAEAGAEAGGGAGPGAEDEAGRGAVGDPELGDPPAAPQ
Assay type: biochemical

- cofactor preference in terms of RIP values, favouring the NADPH bound enzyme (cofactor preference for NADPH in terms of RIP values): 2–11 fold
- 17β-HSD1 inhibitory effect (in words) (evaluation of potentials obtained with NADPH): potent inhibitors
Structure (SMILES): COC(=O)CO[C@@H]1CC(=O)[C@@]2(C)CC[C@@H]3c4ccc(OCc5ccccc5)cc4CC[C@H]3[C@H]12 [Compound 22, 3-Benzyloxy-15β-(2’-methoxy-2’-oxoethoxy)-estra-1,3,5(10)-trien-17-one]
